Data reported in paper PMC9866218, “Characterization and Chemical Synthesis of Cm39 (α-KTx 4.8): A Scorpion Toxin That Inhibits Voltage-Gated K^+ Channel KV1.2 and Small- and Intermediate-Conductance Ca^2+-Activated K^+ Channels KCa2.2 and KCa3.1” (Toxins, 2023).
Entries after “also recorded” stand apart in the source; their conditions may differ.

Legend:
[1] = tested on: hKV1.5; test: Whole-cell patch-clamp, block of KV1.5 current; type: cell-based, human; details: CHO cells
Source text: (§1) We, therefore, aimed at testing the pharmacological activity of sCm39 on a battery of various potassium and sodium ion channels. Among the tested channels were six members of human voltage-gated K^+ (hKV) channels from Shaker family, hKV1.1-hKV1.6 (Figure 3A–F) and three members of Ca^2+-activated potassium channel; hKCa2.2 (SK2, Figure 3I), the small-conductance Ca^2+-activated channel; hKCa3.1 (IKCa1, SK4. Figure 3J), the intermediate-conductance Ca^2+-activated channel expressed in T lymphocytes; and mKCa1.1 (BK, Slo1, MaxiK, Figure 3H), the large-conductance voltage- and Ca^2+-activated channel of mice. In addition, we also screened the effect of Cm39 on hKV11.1 (hERG1, Figure 3G), a voltage-gated cardiac K^+ channel, and two human voltage-gated sodium (hNaV) channels, hNaV1.4 (Figure 3K) and hNaV1.5 (Figure 3L), expressed in skeletal and cardiac muscles, respectively. These ion channels were heterologously expressed in the CHO or HEK cell lines except for KV1.3. Human peripheral T lymphocytes. They were stimulated with Phytohemagglutinin A (PHA) to increase the KV1.3 channel expression, and Ca^2+-free intracellular solution was used to avoid KCa3.1 channel activation. […]
Those plasmids which lack a fluorescent tag were co-transfected with a plasmid encoding GFP. […] Generally, currents were recorded 24 to 48 h post transfection. […]

[2] = tested on: hNaV1.4; test: Whole-cell patch-clamp, block of NaV1.4 current; type: cell-based, human; details: HEK 293 cells
Source text: as §1, with “lymphocytes.” for “lymphocytes. They were stimulated with Phytohemagglutinin A (PHA) to increase the KV1.3 channel expression, and Ca^2+-free intracellular solution was used to avoid KCa3.1 channel activation.”
Whole-cell currents were recorded in voltage-clamped cells following standard protocols by using a Multiclamp 700B amplifier connected to a computer with Axon Digidata1440 digitizer and for data acquisition, Clampex 10.7 software was used (Molecular Devices). […]

In the case of `CC[C@H](C)[C@@H]1NC(=O)[C@H](C)NC(=O)[C@H](C)NC(=O)[C@H](CCCCN)NC(=O)[C@@H]2CSSC[C@@H](C(=O)N[C@@H](Cc3ccc(O)cc3)C(=O)N[C@@H](Cc3ccc(O)cc3)C(=O)O)NC(=O)[C@H](CCCCN)NC(=O)[C@@H]3CSSC[C@H](NC(=O)[C@H](CCC(=O)O)NC(=O)[C@H](CO)NC(=O)[C@H](CO)NC(=O)[C@H](CO)NC(=O)[C@H](CCCCN)NC(=O)[C@@H](NC(=O)[C@H](CCCCN)NC(=O)[C@H](Cc4c[nH]cn4)NC(=O)[C@H](CC(N)=O)NC(=O)[C@@H](NC(=O)[C@H](Cc4ccccc4)NC(=O)[C@@H](N)[C@@H](C)O)[C@@H](C)CC)CSSC[C@H](NC(=O)[C@H](CCCCN)NC(=O)CNC(=O)[C@H](CO)NC(=O)[C@H](C)NC(=O)[C@H](CCCNC(=N)N)NC(=O)CNC1=O)C(=O)N[C@@H]([C@@H](C)CC)C(=O)N[C@@H](CC(N)=O)C(=O)N[C@@H](CO)C(=O)N[C@@H]([C@@H](C)O)C(=O)N3)C(=O)N[C@@H](CC(C)C)C(=O)N1CCC[C@H]1C(=O)N[C@@H](C)C(=O)N2` [Cm39], the “inhibition (in words)” value ([1]; 1 μM) is reported as “does not inhibit; also recorded: did not show any effect”, the decrease in current ([1]; 1 µM, 3−5 min, n = 3−5) is reported as less than 3% and the “inhibition (in words)” value ([2]; 1 μM) is reported as “does not inhibit; also recorded: did not show any effect”. The decrease in current ([2]; 1 µM, 3−5 min, n = 3−5) was less than 3%.
